Results: patent US8877748B2, “Heterocyclic fused anthraquinone derivatives, manufacturing method and pharmaceutical composition using thereof” (National Defense Medical Center, priority 2012, dated 2014)
Like-named read-outs stand apart in the source and are kept apart here.

Columns and labels:
[1] = test system: PC-3 prostate cancer cell line; assay: SRB assay cell viability, PC-3 prostate cancer cell line; format: cell-based, human; conditions: PC-3 prostate cancer cell line, Table II prints no unit, μM printed, read-out: SRB assay: 50% inhibition of cancer cell proliferation of sample concentration (IC50) of PC-3 prostate cancer cell line
HL-60, TB = assay: NCI one-dose screening, leukemia HL-60, TB; format: cell-based, human; conditions: 10 μM
MOLT-4 = assay: NCI one-dose screening, leukemia MOLT-4; format: cell-based, human; conditions: 10 μM
SR = assay: NCI one-dose screening, leukemia SR; format: cell-based, human; conditions: 10 μM
PRMI-8226 cell line = assay: NCI one-dose screening, leukemia PRMI-8226; format: cell-based, human; conditions: 10 μM
K562cell line = assay: NCI one-dose screening, leukemia K562; format: cell-based, human; conditions: 10 μM
EKVX = assay: NCI one-dose screening, non-small cell lung cancer EKVX; format: cell-based, human; conditions: 10 μM
HOP-62 = assay: NCI one-dose screening, non-small cell lung cancer HOP-62; format: cell-based, human; conditions: 10 μM
HOP-92 = assay: NCI one-dose screening, non-small cell lung cancer HOP-92; format: cell-based, human; conditions: 10 μM
NCI-H226 = assay: NCI one-dose screening, non-small cell lung cancer NCI-H226; format: cell-based, human; conditions: 10 μM
NCI-H23 = assay: NCI one-dose screening, non-small cell lung cancer NCI-H23; format: cell-based, human; conditions: 10 μM
NCI-H460 = assay: NCI one-dose screening, non-small cell lung cancer NCI-H460; format: cell-based, human; conditions: 10 μM
NCI-H522 = assay: NCI one-dose screening, non-small cell lung cancer NCI-H522; format: cell-based, human; conditions: 10 μM
A549/ATCC = assay: NCI one-dose screening, non-small cell lung cancer A549/ATCC; format: cell-based, human; conditions: 10 μM
COLO 205 = assay: NCI one-dose screening, colon cancer COLO 205; format: cell-based, human; conditions: 10 μM
HCC-2998 = assay: NCI one-dose screening, colon cancer HCC-2998; format: cell-based, human; conditions: 10 μM
HCT-116 = assay: NCI one-dose screening, colon cancer HCT-116; format: cell-based, human; conditions: 10 μM
HCT-15 = assay: NCI one-dose screening, colon cancer HCT-15; format: cell-based, human; conditions: 10 μM
KM12 = assay: NCI one-dose screening, colon cancer KM12; format: cell-based, human; conditions: 10 μM
HT29 = assay: NCI one-dose screening, colon cancer HT29; format: cell-based, human; conditions: 10 μM
SF-268 = assay: NCI one-dose screening, CNS cancer SF-268; format: cell-based, human; conditions: 10 μM
SF-295 = assay: NCI one-dose screening, CNS cancer SF-295; format: cell-based, human; conditions: 10 μM
SF-539 = assay: NCI one-dose screening, CNS cancer SF-539; format: cell-based, human; conditions: 10 μM
SNB-19 = assay: NCI one-dose screening, CNS cancer SNB-19; format: cell-based, human; conditions: 10 μM
SNB-75 = assay: NCI one-dose screening, CNS cancer SNB-75; format: cell-based, human; conditions: 10 μM
U251 = assay: NCI one-dose screening, CNS cancer U251; format: cell-based, human; conditions: 10 μM
LOX IMVI = assay: NCI one-dose screening, melanoma LOX IMVI; format: cell-based, human; conditions: 10 μM
MALME-3M = assay: NCI one-dose screening, melanoma MALME-3M; format: cell-based, human; conditions: 10 μM
M14 = assay: NCI one-dose screening, melanoma M14; format: cell-based, human; conditions: 10 μM
UACC-62 = assay: NCI one-dose screening, melanoma UACC-62; format: cell-based, human; conditions: 10 μM
UACC-257 = assay: NCI one-dose screening, melanoma UACC-257; format: cell-based, human; conditions: 10 μM
SK-MEL-2 = assay: NCI one-dose screening, melanoma SK-MEL-2; format: cell-based, human; conditions: 10 μM
SK-MEL-28 = assay: NCI one-dose screening, melanoma SK-MEL-28; format: cell-based, human; conditions: 10 μM
SK-MEL-5 = assay: NCI one-dose screening, melanoma SK-MEL-5; format: cell-based, human; conditions: 10 μM
IGROV1 = assay: NCI one-dose screening, ovarian cancer IGROV1; format: cell-based, human; conditions: 10 μM
OVCAR-3 = assay: NCI one-dose screening, ovarian cancer OVCAR-3; format: cell-based, human; conditions: 10 μM
OVCAR-5 = assay: NCI one-dose screening, ovarian cancer OVCAR-5; format: cell-based, human; conditions: 10 μM
OVCAR-8 = assay: NCI one-dose screening, ovarian cancer OVCAR-8; format: cell-based, human; conditions: 10 μM
SK-OV-3 = assay: NCI one-dose screening, ovarian cancer SK-OV-3; format: cell-based, human; conditions: 10 μM
786-O = assay: NCI one-dose screening, renal cancer 786-O; format: cell-based, human; conditions: 10 μM
CAKI-1 = assay: NCI one-dose screening, renal cancer CAKI-1; format: cell-based, human; conditions: 10 μM
[2] = NCI one-dose screening, renal cancer A489; format: cell-based, human; conditions: 10 μM
ACHN = assay: NCI one-dose screening, renal cancer ACHN; format: cell-based, human; conditions: 10 μM
SN12C = assay: NCI one-dose screening, renal cancer SN12C; format: cell-based, human; conditions: 10 μM
TK-10 = assay: NCI one-dose screening, renal cancer TK-10; format: cell-based, human; conditions: 10 μM
UO-31 = assay: NCI one-dose screening, renal cancer UO-31; format: cell-based, human; conditions: 10 μM
RXF, 393 = assay: NCI one-dose screening, renal cancer RXF, 393; format: cell-based, human; conditions: 10 μM
DU145 = assay: NCI one-dose screening, prostate cancer DU145; format: cell-based, human; conditions: 10 μM
PC-3 = assay: NCI one-dose screening, prostate cancer PC-3; format: cell-based, human; conditions: 10 μM
MCF7 = assay: NCI one-dose screening, breast cancer MCF7; format: cell-based, human; conditions: 10 μM
HS 578-T = assay: NCI one-dose screening, breast cancer HS 578-T; format: cell-based, human; conditions: 10 μM; Breast cancer
MDA-MB-231/ATCC = assay: NCI one-dose screening, breast cancer MDA-MB-231/ATCC; format: cell-based, human; conditions: 10 μM
MDA-MB-468 = assay: NCI one-dose screening, breast cancer MDA-MB-468; format: cell-based, human; conditions: 10 μM
NCl/ADR-RES = assay: NCI one-dose screening, breast cancer NCl/ADR-RES; format: cell-based, human; conditions: 10 μM; listed under Ovarian cancer
BT-549 = assay: NCI one-dose screening, breast cancer BT-549; format: cell-based, human; conditions: 10 μM
T-47D = assay: NCI one-dose screening, breast cancer T-47D; format: cell-based, human; conditions: 10 μM
MDA, -MB-435 = assay: NCI one-dose screening, breast cancer MDA, -MB-435; format: cell-based, human; conditions: 10 μM; listed under Melanoma
human tumor cell lines = assay: NCI one-dose screening, Mean / Delta / Range of growth percent over all tested cell lines; format: cell-based; conditions: 10 μM; for Growth Percent Delta: delta over all cell lines; for Growth Percent Mean: mean over all cell lines; for Growth Percent Range: range over all cell lines

O=C1c2ccccc2C(=O)c2c1cc(Sc1ccccc1Br)c1nsnc21 [C27, 4-(2-bromo-phenylthio)anthra[2,1-c] [1,2,5]thiadiazol oxazole-6,11-dione]
IC50 [1]: 5.76 µM
Growth Percent HL-60(TB) (HL-60, TB): −43.96%
Growth Percent MOLT-4 (MOLT-4): 29.67%
Growth Percent SR (SR): 2.94%
Growth Percent RPMI-8226 (PRMI-8226 cell line): 9.40%
Growth Percent K562 (K562cell line): 29.66%
Growth Percent EKVX (EKVX): 77.74%
Growth Percent HOP-62 (HOP-62): 4.88%
Growth Percent HOP-92 (HOP-92): 37.57%
Growth Percent NCI-H226 (NCI-H226): 92.07%
Growth Percent NCI-H23 (NCI-H23): 18.02%
Growth Percent NCI-H460 (NCI-H460): 58.24%
Growth Percent NCI-H522 (NCI-H522): 30.77%
Growth Percent A549/ATCC (A549/ATCC): 95.37%
Growth Percent COLO 205 (COLO 205): 97.36%
Growth Percent HCC-2998 (HCC-2998): 78.44%
Growth Percent HCT-116 (HCT-116): 16.62%
Growth Percent HCT-15 (HCT-15): 39.74%
Growth Percent KM12 (KM12): 57.85%
Growth Percent HT29 (HT29): 96.46%
Growth Percent SF-268 (SF-268): −5.11%
Growth Percent SF-295 (SF-295): 100.07%
Growth Percent SF-539 (SF-539): −5.66%
Growth Percent SNB-19 (SNB-19): 71.38%
Growth Percent SNB-75 (SNB-75): 47.20%
Growth Percent U251 (U251): 11.49%
Growth Percent LOX IMVI (LOX IMVI): −15.34%
Growth Percent MALME-3M (MALME-3M): 35.27%
Growth Percent M14 (M14): 59.45%
Growth Percent UACC-62 (UACC-62): 39.58%
Growth Percent UACC-257 (UACC-257): 4.75%
Growth Percent SK-MEL-2 (SK-MEL-2): 35.02%
Growth Percent SK-MEL-28 (SK-MEL-28): 64.65%
Growth Percent SK-MEL-5 (SK-MEL-5): 46.26%
Growth Percent IGROV1 (IGROV1): 27.94%
Growth Percent OVCAR-3 (OVCAR-3): −65.85%
Growth Percent OVCAR-5 (OVCAR-5): 120.52%
Growth Percent OVCAR-8 (OVCAR-8): 2.47%
Growth Percent SK-OV-3 (SK-OV-3): 66.68%
Growth Percent 786-0 (786-O): −6.19%
Growth Percent CAKI-1 (CAKI-1): 29.67%
Growth Percent A498 [2]: 24.25%
Growth Percent ACHN (ACHN): 25.50%
Growth Percent SN12C (SN12C): 22.56%
Growth Percent TK-10 (TK-10): 76.52%
Growth Percent UO-31 (UO-31): 56.15%
Growth Percent RXF 393 (RXF, 393): −8.53%
Growth Percent DU145 (DU145): 50.57%
Growth Percent PC-3 (PC-3): 4.23%
Growth Percent MCF7 (MCF7): −6.39%
Growth Percent HS 578T (HS 578-T): 54.25%
Growth Percent MDA-MB-231/ATCC (MDA-MB-231/ATCC): 16.85%
Growth Percent MDA-MB-468 (MDA-MB-468): −79.88%
Growth Percent NCI/ADR-RES (NCl/ADR-RES): −29.94%
Growth Percent BT-549 (BT-549): 52.19%
Growth Percent T-47D (T-47D): −33.05%
Growth Percent MDA-MB-435 (MDA, -MB-435): −72.95%
Growth Percent Delta (human tumor cell lines): 109.49%
Growth Percent Mean (human tumor cell lines): 29.61%
Growth Percent Range (human tumor cell lines): 200.40%

COc1ccc(Sc2cc3c(c4nsnc24)C(=O)c2ccccc2C3=O)cc1 [C41, 4-(4-methoxy-phenyl-thio)anthra[2,1-c] [1,2,5]thiadiazol-6,11-dione]
IC50 ([1]; Homo sapiens): > 15 µM
Growth Percent HL-60(TB) (HL-60, TB): 102.73%
Growth Percent MOLT-4 (MOLT-4): 82.89%
Growth Percent SR (SR): 101.71%
Growth Percent RPMI-8226 (PRMI-8226 cell line): 101.16%
Growth Percent K562 (K562cell line): 91.98%
Growth Percent EKVX (EKVX): 148.76%
Growth Percent HOP-62 (HOP-62): 95.20%
Growth Percent HOP-92 (HOP-92): 91.38%
Growth Percent NCI-H226 (NCI-H226): 79.51%
Growth Percent NCI-H23 (NCI-H23): 89.13%
Growth Percent NCI-H460 (NCI-H460): 107.16%
Growth Percent NCI-H522 (NCI-H522): 95.69%
Growth Percent A549/ATCC (A549/ATCC): 103.32%
Growth Percent COLO 205 (COLO 205): 112.25%
Growth Percent HCC-2998 (HCC-2998): 106.85%
Growth Percent HCT-116 (HCT-116): 94.64%
Growth Percent HCT-15 (HCT-15): 109.35%
Growth Percent KM12 (KM12): 101.28%
Growth Percent HT29 (HT29): 101.30%
Growth Percent SF-268 (SF-268): 94.81%
Growth Percent SF-539 (SF-539): 93.53%
Growth Percent SNB-19 (SNB-19): 113.97%
Growth Percent SNB-75 (SNB-75): 79.05%
Growth Percent U251 (U251): 102.73%
Growth Percent LOX IMVI (LOX IMVI): 90.24%
Growth Percent MALME-3M (MALME-3M): 89.52%
Growth Percent M14 (M14): 92.89%
Growth Percent UACC-62 (UACC-62): 108.99%
Growth Percent UACC-257 (UACC-257): 118.11%
Growth Percent SK-MEL-2 (SK-MEL-2): 99.24%
Growth Percent SK-MEL-28 (SK-MEL-28): 115.63%
Growth Percent SK-MEL-5 (SK-MEL-5): 106.14%
Growth Percent IGROV1 (IGROV1): 103.17%
Growth Percent OVCAR-3 (OVCAR-3): 109.57%
Growth Percent OVCAR-5 (OVCAR-5): 103.00%
Growth Percent OVCAR-8 (OVCAR-8): 99.50%
Growth Percent SK-OV-3 (SK-OV-3): 106.18%
Growth Percent 786-0 (786-O): 94.93%
Growth Percent CAKI-1 (CAKI-1): 108.29%
Growth Percent A498 [2]: 84.77%
Growth Percent ACHN (ACHN): 102.26%
Growth Percent SN12C (SN12C): 106.54%
Growth Percent TK-10 (TK-10): 135.79%
Growth Percent UO-31 (UO-31): 68.31%
Growth Percent RXF 393 (RXF, 393): 109.28%
Growth Percent DU145 (DU145): 112.48%
Growth Percent PC-3 (PC-3): 82.81%
Growth Percent MCF7 (MCF7): 93.78%
Growth Percent HS 578T (HS 578-T): 96.71%
Growth Percent MDA-MB-231/ATCC (MDA-MB-231/ATCC): 87.58%
Growth Percent MDA-MB-468 (MDA-MB-468): 112.95%
Growth Percent NCI/ADR-RES (NCl/ADR-RES): 97.60%
Growth Percent BT-549 (BT-549): 92.92%
Growth Percent T-47D (T-47D): 89.66%
Growth Percent MDA-MB-435 (MDA, -MB-435): 118.61%
Growth Percent Delta (human tumor cell lines): 32.46%
Growth Percent Mean (human tumor cell lines): 1000.77%
Growth Percent Range (human tumor cell lines): 80.45%
